The record followed here is article PMC1253752, “Binding of Estrogenic Compounds to Recombinant Estrogen Receptor-α: Application to Environmental Analysis” (Environmental Health Perspectives, 2004).

By EC50 is commonly meant the concentration at which the effect is half-maximal. By IC50 is commonly meant the midpoint of a concentration-inhibition curve.

Like-named read-outs stand apart in the source and are kept apart here.

For data set [1], the target named is T1, ER-α (Homo sapiens, UniProt P03372).
T1 construct: we transfected ER-α–positive breast cancer MCF-7 cells; endogenous in cells; host or cells: MELN (MCF-7 stably transfected with ERE-βGlob-Luc-SVNeo)
T1 sequence (P03372 1-595): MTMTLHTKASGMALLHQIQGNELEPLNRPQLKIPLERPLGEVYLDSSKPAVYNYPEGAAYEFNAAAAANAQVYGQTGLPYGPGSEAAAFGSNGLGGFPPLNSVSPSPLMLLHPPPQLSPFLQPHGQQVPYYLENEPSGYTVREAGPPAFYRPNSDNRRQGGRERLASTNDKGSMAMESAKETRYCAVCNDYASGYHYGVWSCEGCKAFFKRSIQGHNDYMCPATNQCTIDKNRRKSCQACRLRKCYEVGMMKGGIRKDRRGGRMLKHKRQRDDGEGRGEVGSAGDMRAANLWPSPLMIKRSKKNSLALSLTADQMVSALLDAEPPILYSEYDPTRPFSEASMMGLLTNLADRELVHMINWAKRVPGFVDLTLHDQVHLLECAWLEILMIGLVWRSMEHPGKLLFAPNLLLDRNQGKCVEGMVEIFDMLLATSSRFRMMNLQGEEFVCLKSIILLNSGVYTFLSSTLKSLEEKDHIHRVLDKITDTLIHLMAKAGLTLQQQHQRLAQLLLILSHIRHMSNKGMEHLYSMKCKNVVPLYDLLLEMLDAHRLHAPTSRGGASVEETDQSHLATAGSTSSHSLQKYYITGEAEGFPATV
Nature of the data set: MELN cell luciferase assay (estrogen-responsive reporter in MCF-7 cells). Type of data set: cell-based. The method, then: Selection of resistant clones by geneticin was performed at 1 mg/mL.
(§1) For strain cultures, cells were grown in phenol red containing Dulbecco’s modified Eagle medium, 1 g/L glucose, supplemented with 5% fetal calf serum (FCS), and 1% antibiotic (penicillin/streptomycin) in a 5% CO2 humidified atmosphere at 37°C.
Cells were seeded at a density of 5 × 10^4 cells/well in 96-well white opaque tissue culture plates (Becton Dickinson, Le Pont de Claix, France) in 150 μL test culture medium. Compounds to be tested were prepared 4× concentrated in the same medium and 50 μL was added per well 8 hr after seeding. Cells were incubated with compounds for 16 hr. Experiments were performed in quadruplicate and repeated twice. At the end of incubation, effector containing medium was removed and replaced by […], luciferin diffuses into the cell and produces a luminescent signal that is stable from 5 min on. […] The 96-well plate was then introduced in a microplate luminometer (Centro LB 960, Berthold Technologies), and intact living cell luminescence measured for 2 sec. Results are expressed as a percentage of maximum luciferase activity. […] GraphPad Software Inc., San Diego, CA, USA). […]

Data set [2] deals with T2, recombinant ER-α (hER-αLBD triple mutant) (Homo sapiens, UniProt P03372, C381S/C417S/C530S).
T2 sequence (P03372 302-552 C381S/C417S/C530S): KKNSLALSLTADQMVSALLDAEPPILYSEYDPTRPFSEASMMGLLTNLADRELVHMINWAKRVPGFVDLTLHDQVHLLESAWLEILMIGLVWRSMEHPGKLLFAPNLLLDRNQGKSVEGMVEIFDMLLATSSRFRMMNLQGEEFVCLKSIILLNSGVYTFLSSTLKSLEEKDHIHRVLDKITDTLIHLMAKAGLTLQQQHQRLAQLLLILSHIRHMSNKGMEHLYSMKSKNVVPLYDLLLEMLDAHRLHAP
To be noted: for RBA: ratio of IC50 values of E2 to competitor, E2 set at 100.

Data set [3] has as its target T2, recombinant ER-α (hER-αLBD triple mutant). Nature of the data set: biochemical.
The target in data set [4] is T1, ER-α. Type of data set: cell-based. The procedure: Ten nanomoles of recombinant ER-αwere immobilized on 500 μL Ni-NTA-agarose phase. […] After rolling for 16 hr, flow-through and three 500-μL washings with WB were collected. Liganded receptor was then eluted with 3 × 500 μL EB, and eluate was heated at 65°C for 30 min in order to denature recombinant ER-α. Collected fractions were diluted 10-fold in culture medium before their relative estrogenic activity was evaluated with MELN reporter cells.
Flow-through (1.5 mL), washing, and elution fractions (500 μL) were collected. Precolumn and flow-through fractions were diluted 10-fold in culture medium before their relative activities were evaluated with MELN and HAhLP reporter cells. Washing and elution fractions were diluted 30-fold in culture medium to take into account the fact that they were 3× concentrated.

Another data set addresses T3, recombinant ER-α (Homo sapiens, UniProt P03372, C381S/C417S/C530S).
T3 construct: hER-αLBD(Lys302 → Pro552); made in house; host or cells: Escherichia coli BL21 DE3
T3 sequence (P03372 302-552 C381S/C417S/C530S): T2 sequence (P03372 302-552 C381S/C417S/C530S)
Type of data set: cell-based. As to conditions: compound at concentration giving about 80% MELN transactivation, 1-100 nM recombinant ER-α. The procedure: MELN cells were seeded in 96-well white opaque tissue culture plates as described above. In separate tubes, estrogenic compounds at nonsaturating concentration mediating about 80% MELN cell activity or 0.1% methanol extract for environmental samples, were prepared 4×-concentrated and preincubated with the same volume of 4×-concentrated purified recombinant ER-α(1–100 nM final concentration) in test culture medium at 4°C for 16 hr. Medium from MELN cell culture plates was then removed and replaced by 100 μL of test culture medium supplemented with the same volume of preincubation medium. After 6 hr incubation at 37°C, luciferase activity was determined.

A further data set deals with T4, AhR (Homo sapiens, UniProt P35869).
T4 construct: The dioxin reporter cell line was obtained by transfecting HeLa cells with CYP1A1-Luc and pSG5-puro plasmids; endogenous in cells; host or cells: HAhLP (HeLa stably transfected with CYP1A1-Luc and pSG5-puro)
T4 sequence (P35869 11-848): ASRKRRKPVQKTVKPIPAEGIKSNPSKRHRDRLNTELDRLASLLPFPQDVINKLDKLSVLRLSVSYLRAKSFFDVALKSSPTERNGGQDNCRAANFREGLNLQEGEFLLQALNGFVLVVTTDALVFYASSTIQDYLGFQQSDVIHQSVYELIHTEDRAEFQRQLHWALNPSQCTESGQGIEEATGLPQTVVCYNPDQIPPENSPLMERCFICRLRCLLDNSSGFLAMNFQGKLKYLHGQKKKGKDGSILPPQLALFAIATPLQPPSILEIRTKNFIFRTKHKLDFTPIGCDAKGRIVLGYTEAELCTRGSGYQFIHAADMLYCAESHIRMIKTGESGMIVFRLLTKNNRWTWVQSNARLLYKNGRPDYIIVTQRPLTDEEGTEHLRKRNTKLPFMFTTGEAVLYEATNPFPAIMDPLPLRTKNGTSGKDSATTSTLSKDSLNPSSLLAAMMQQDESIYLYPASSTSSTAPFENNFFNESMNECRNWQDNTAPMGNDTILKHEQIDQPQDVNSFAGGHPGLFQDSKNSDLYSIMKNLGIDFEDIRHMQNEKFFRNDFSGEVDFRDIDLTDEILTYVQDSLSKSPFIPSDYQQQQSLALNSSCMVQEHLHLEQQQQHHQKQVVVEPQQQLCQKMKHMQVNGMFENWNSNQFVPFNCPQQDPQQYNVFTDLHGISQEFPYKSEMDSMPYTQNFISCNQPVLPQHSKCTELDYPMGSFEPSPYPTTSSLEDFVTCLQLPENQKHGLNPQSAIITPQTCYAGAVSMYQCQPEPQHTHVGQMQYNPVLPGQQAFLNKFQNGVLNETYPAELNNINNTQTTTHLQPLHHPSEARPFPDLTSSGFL
Nature of the data set: HAhLP cell luciferase assay (CYP1A1-Luc reporter in HeLa cells). As to conditions: read-out: EC50 value, induction of luciferase expression. Type of data set: cell-based. The procedure:
The dioxin reporter cell line was obtained by transfecting HeLa cells with CYP1A1-Luc and pSG5-puro plasmids. Selection of resistant clones by puromycin was performed at 0.5 μg/mL. The most dioxin-responsive clone was denominated HAhLP 1.15. […].
as §1
Cells were seeded at a density of 5 × 10^4 cells/well in 96-well white opaque tissue culture plates (Becton Dickinson, Le Pont de Claix, France) in 150 μL test culture medium. Compounds to be tested were prepared 4× concentrated in the same medium and 50 μL was added per well 8 hr after seeding. Cells were incubated with compounds for 16 hr. Experiments were performed in quadruplicate and repeated twice. […] The 96-well plate was then introduced in a microplate luminometer (Centro LB 960, Berthold Technologies), and intact living cell luminescence measured for 2 sec. Results are expressed as a percentage of maximum luciferase activity. […]
Sediment and water methanol extracts were applied to MELN and HAhLP cells at 0.3% (vol/vol) maximal concentration in test culture medium, and luciferase transactivation was measured.

Setting [5] is: half-maximal induction in MELN cell line, 16 hr, read-out: EC50 ± SE.
Where [6] appears, read: ratio of EC50 values of E2 to compound, E2 set at 100.
[7] abbreviates: compound applied at 3 nM, 10 nM E2 = 100.
[8] abbreviates: compound applied at 300 nM, 10 nM E2 = 100.

On to `ClC(Cl)=C(c1ccc(Cl)cc1)c1ccccc1Cl` [2,4′-DDE], for which the half-maximal effective concentration (EC50) at ER-α [1] (setting [5]) was determined as 2.74 µM. Moreover, the RTP at ER-α [1] (setting [6]) is recorded as 0.00063.

On to `ClC(Cl)=C(c1ccc(Cl)cc1)c1ccc(Cl)cc1` [4,4′-DDE], for which, on ER-α [1] (setting [5]), the EC50 turned out to be 25.6 µM. For the same molecule, the RTP on ER-α [1] (setting [6]) came to 0.00007.

Molecule `CCCCCCCCCc1ccc(O)cc1` [4-NP, 4n-nonylphenol] gave an RTP at ER-α [1] of 0.00016. Also, the EC50 on ER-α [1] (setting [5]) turned out to be 11 µM. Also, the RBA in data set [2] is 0.11. In addition, in data set [3], the 50% inhibitory concentration (IC50) came out at 5.6 µM.

On to `CC(C)(c1ccc(O)cc1)c1ccc(O)cc1` [BPA, bisphenol A], for which, on ER-α [4], the “Induction of luciferase activity, Elution” value (“Induction … Elution” for short) was determined as 70 ± 2%; the “Induction of luciferase activity, Flow-through” value (“Induction … Flow-through” for short) worked out at 17 ± 2%; the “Induction of luciferase activity, Precolumn” value (from here on “Induction … Precolumn”) was determined as 70 ± 6%; the “Induction of luciferase activity, Washing” value (shortened to “Induction … Washing”) came out at 16 ± 2%.

For the molecule `O=S1(=O)OC(c2ccc(O)cc2)(c2ccc(O)cc2)c2ccccc21` [Phenol red, phenol red], the RTP at ER-α [1] worked out at 0.00005. The EC50 at ER-α [1] (setting [5]) came to 36.9 µM. In addition, at ER-α [4], the “Induction … Elution” value was determined as 40 ± 4%; the “Induction … Flow-through” value turned out to be 16 ± 2%; the “Induction … Precolumn” value is recorded as 36 ± 5%; the “Induction … Washing” value is reported as 15 ± 3%.

On to `C[C@H]1CCCC(=O)CCC/C=C/c2cc(O)cc(O)c2C(=O)O1` [Zearalenone, zearalenone], for which, at ER-α [1], the EC50 came to 0.000313 µM. Moreover, the RTP at ER-α [1] (setting [6]) was determined as 5.62. For the same molecule, the “capture by recombinant ER-α / inhibition of transactivation” value at recombinant ER-α was “captured less efficiently than was E2”.

With `Clc1cc2c(cc1Cl)Oc1cc(Cl)c(Cl)cc1O2` [dioxin], the “activation of MELN cells” value at ER-α [1] (MELN cells) is given as “able to partially activate MELN cells”. Besides, on AhR, the EC50 was found to be 0.0002 µM.

As for `C[C@H]1CCC[C@H](O)CCCCCc2cc(O)cc(O)c2C(=O)O1` [α -Zearalanol, α-zearalanol], the EC50 at ER-α [1] (setting [5]) turned out to be 0.000135 µM. Also, at ER-α [1] (setting [6]), the RTP was 13.0. Moreover, at ER-α [4] (setting [7]), the “Induction … Elution” value is 82 ± 6%; the “Induction … Flow-through” value was 17 ± 2%; the “Induction … Precolumn” value was determined as 88 ± 2%; the “Induction … Washing” value is given as 16 ± 1%.

For the molecule nonylphenol mixture [NPm], at ER-α [1] (setting [5]), the EC50 amounted to 0.339 µM. The RTP on ER-α [1] (setting [6]) is given as 0.0051. In addition, the “capture by recombinant ER-α / inhibition of transactivation” value at recombinant ER-α is given as “only a slight or no inhibition”. Further, at ER-α [4] (setting [8]), the “Induction … Elution” value amounted to 56 ± 2%; the “Induction … Flow-through” value is 17 ± 1%; the “Induction … Precolumn” value turned out to be 57 ± 4%; the “Induction … Washing” value stood at 16 ± 2%. For the same molecule, in data set [2], the RBA is recorded as 0.32. The IC50 in data set [2] (read-out: IC50 ± SE, 0.75 pmol recombinant ER-α, 2 nM [3H]-E2, 500 μL, 4°C 16 hr) amounted to 1.86 µM.
